Test results published in patent US9125913B2, “Bcl-2-selective apoptosis-inducing agents for the treatment of cancer and immune diseases” (AbbVie Inc., priority 2008, dated 2015).

Tested on: GST-Bcl-2
Test: TR-FRET binding assay, Bcl-2
Settings: TR-FRET Ki values
Procedure, shortened: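 Ki values come from Wang's competitive-binding equation applied to TR-FRET signal (excitation 340/35 nm; emission 520/525 nm F-Bak peptide, 495/510 nm Tb antibody). Protein, probe and antibody incubated with compound 3 h at room temperature; dilution series began at 50 μM as 2× stock in 10% DMSO.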

| SMILES | Binding selectivity ratio (Bcl-XL Ki/Bcl-2 Ki) |
| --- | --- |
| CC1(C)CCC(CN2CCN(c3ccc(C(=O)NS(=O)(=O)c4ccc(NCc5cncs5)c([N+](=O)[O-])c4)c(Oc4ccc5[nH]ccc5c4)c3)CC2)=C(c2ccc(Cl)cc2)C1 [EXAMPLE 288, 4-(4-{[2-(4-chlorophenyl)-4,4-dimethylcyclohex-1-en-1-yl]methyl}piperazin-1-yl)-2-(1H-indol-5-yloxy)-N-({3-nitro-4-[(1,3-thiazol-5-ylmethyl)amino]phenyl}sulfonyl)benzamide] | >3730.9 |
| CC1(C)CCC(CN2CCN(c3ccc(C(=O)NS(=O)(=O)c4ccc(OCC5CCOCC5)c([N+](=O)[O-])c4)c(Oc4cccc5[nH]ccc45)c3)CC2)=C(c2ccc(Cl)cc2)C1 [EXAMPLE 289, 4-(4-{[2-(4-chlorophenyl)-4,4-dimethylcyclohex-1-en-1-yl]methyl}piperazin-1-yl)-2-(1H-indol-4-yloxy)-N-{[3-nitro-4-(tetrahydro-2H-pyran-4-ylmethoxy)phenyl]sulfonyl}benzamide] | >5917.7 |
| CC1(C)CCC(c2ccc(Cl)cc2)=C(CN2CCN(c3ccc(C(=O)NS(=O)(=O)c4ccc(NCC5CCOCC5)c([N+](=O)[O-])c4)c(Oc4ccc5[nH]ccc5c4)c3)CC2)C1 [EXAMPLE 290, 4-(4-{[2-(4-chlorophenyl)-5,5-dimethylcyclohex-1-en-1-yl]methyl}piperazin-1-yl)-2-(1H-indol-5-yloxy)-N-({3-nitro-4-[(tetrahydro-2H-pyran-4-ylmethyl)amino]phenyl}sulfonyl)benzamide] | >1808.5 |
| CC1(C)CCC(CN2CCN(c3ccc(C(=O)NS(=O)(=O)c4ccc(NCCC5CCOCC5)c([N+](=O)[O-])c4)c(Oc4ccc5[nH]ccc5c4)c3)CC2)=C(c2ccc(Cl)cc2)C1 [EXAMPLE 291, 4-(4-{[2-(4-chlorophenyl)-4,4-dimethylcyclohex-1-en-1-yl]methyl}piperazin-1-yl)-2-(1H-indol-5-yloxy)-N-({3-nitro-4-[(2-tetrahydro-2H-pyran-4-ylethyl)amino]phenyl}sulfonyl)benzamide] | >1179.1 |
| CC1(C)CCC(CN2CCN(c3ccc(C(=O)NS(=O)(=O)c4ccc(NCCOC(F)(F)F)c([N+](=O)[O-])c4)c(Oc4cccc5[nH]ccc45)c3)CC2)=C(c2ccc(Cl)cc2)C1 [EXAMPLE 292, 4-(4-{[2-(4-chlorophenyl)-4,4-dimethylcyclohex-1-en-1-yl]methyl}piperazin-1-yl)-2-(1H-indol-4-yloxy)-N-[(3-nitro-4-{[2-(trifluoromethoxy)ethyl]amino}phenyl)sulfonyl]benzamide] | >1104.2 |
| COCCOCCNc1ccc(S(=O)(=O)NC(=O)c2ccc(N3CCN(CC4=C(c5ccc(Cl)cc5)CC(C)(C)CC4)CC3)cc2Oc2cccc3[nH]ccc23)cc1[N+](=O)[O-] [EXAMPLE 293, 4-(4-{[2-(4-chlorophenyl)-4,4-dimethylcyclohex-1-en-1-yl]methyl}piperazin-1-yl)-2-(1H-indol-4-yloxy)-N-[(4-{[2-(2-methoxyethoxy)ethyl]amino}-3-nitrophenyl)sulfonyl]benzamide] | 505.1 |
| CC1(C)CCC(CN2CCN(c3ccc(C(=O)NS(=O)(=O)c4ccc(NCCCS(C)(=O)=O)c([N+](=O)[O-])c4)c(Oc4cccc5[nH]ccc45)c3)CC2)=C(c2ccc(Cl)cc2)C1 [EXAMPLE 294, 4-(4-{[2-(4-chlorophenyl)-4,4-dimethylcyclohex-1-en-1-yl]methyl}piperazin-1-yl)-2-(1H-indol-4-yloxy)-N-[(4-{[3-(methylsulfonyl)propyl]amino}-3-nitrophenyl)sulfonyl]benzamide] | 252 |
| CC1(C)CCC(CN2CCN(c3ccc(C(=O)NS(=O)(=O)c4ccc(NCCCN5CCS(=O)(=O)CC5)c([N+](=O)[O-])c4)c(Oc4cccc5[nH]ccc45)c3)CC2)=C(c2ccc(Cl)cc2)C1 [EXAMPLE 295, 4-(4-{[2-(4-chlorophenyl)-4,4-dimethylcyclohex-1-en-1-yl]methyl}piperazin-1-yl)-N-[(4-{[3-(1,1-dioxidothiomorpholin-4-yl)propyl]amino}-3-nitrophenyl)sulfonyl]-2-(1H-indol-4-yloxy)benzamide] | 599.4 |
| CC1(C)CCC(CN2CCN(c3ccc(C(=O)NS(=O)(=O)c4ccc(CCC5CCOCC5)c([N+](=O)[O-])c4)c(Oc4ccc5[nH]ccc5c4)c3)CC2)=C(c2ccc(Cl)cc2)C1 [EXAMPLE 296, 4-(4-{[2-(4-chlorophenyl)-4,4-dimethylcyclohex-1-en-1-yl]methyl}piperazin-1-yl)-2-(1H-indol-5-yloxy)-N-{[3-nitro-4-(2-tetrahydro-2H-pyran-4-ylethyl)phenyl]sulfonyl}benzamide] | >1014.4 |
| CC1(C)CCC(CN2CCN(c3ccc(C(=O)NS(=O)(=O)c4ccc(OCC5COCCO5)c([N+](=O)[O-])c4)c(Oc4ccc5[nH]ccc5c4)c3)CC2)=C(c2ccc(Cl)cc2)C1 (stereo not shown) [EXAMPLE 297, 4-(4-{[2-(4-chlorophenyl)-4,4-dimethylcyclohex-1-en-1-yl]methyl}piperazin-1-yl)-N-{[4-(1,4-dioxan-2-ylmethoxy)-3-nitrophenyl]sulfonyl}-2-(1H-indol-5-yloxy)benzamide] | 2209.5 |
| COCCOCCNc1ccc(S(=O)(=O)NC(=O)c2ccc(N3CCN(CC4=C(c5ccc(Cl)cc5)CC(C)(C)CC4)CC3)cc2Oc2ccc3[nH]ccc3c2)cc1[N+](=O)[O-] [EXAMPLE 298, 4-(4-{[2-(4-chlorophenyl)-4,4-dimethylcyclohex-1-en-1-yl]methyl}piperazin-1-yl)-2-(1H-indol-5-yloxy)-N-[(4-{[2-(2-methoxyethoxy)ethyl]amino}-3-nitrophenyl)sulfonyl]benzamide] | 1415.7 |
| CC1(C)CCC(CN2CCN(c3ccc(C(=O)NS(=O)(=O)c4ccc(NC5CCS(=O)(=O)C5)c([N+](=O)[O-])c4)c(Oc4cccc5[nH]ccc45)c3)CC2)=C(c2ccc(Cl)cc2)C1 (stereo not shown) [EXAMPLE 299, 4-(4-{[2-(4-chlorophenyl)-4,4-dimethylcyclohex-1-en-1-yl]methyl}piperazin-1-yl)-N-({4-[(1,1-dioxidotetrahydrothien-3-yl)amino]-3-nitrophenyl}sulfonyl)-2-(1H-indol-4-yloxy)benzamide] | 577.7 |
| CC1(C)CCC(CN2CCN(c3ccc(C(=O)NS(=O)(=O)c4ccc(NCC5CCS(=O)(=O)CC5)c([N+](=O)[O-])c4)c(Oc4cccc5[nH]ccc45)c3)CC2)=C(c2ccc(Cl)cc2)C1 [EXAMPLE 301, 4-(4-{[2-(4-chlorophenyl)-4,4-dimethylcyclohex-1-en-1-yl]methyl}piperazin-1-yl)-N-[(4-{[(1,1-dioxidotetrahydro-2H-thiopyran-4-yl)methyl]amino}-3-nitrophenyl)sulfonyl]-2-(1H-indol-4-yloxy)benzamide] | >2268.0 |
| CC1(C)CCC(CN2CCN(c3ccc(C(=O)NS(=O)(=O)c4ccc(NCC(F)F)c([N+](=O)[O-])c4)c(Oc4ccc5[nH]ccc5c4)c3)CC2)=C(c2ccc(Cl)cc2)C1 [EXAMPLE 302, 4-(4-{[2-(4-chlorophenyl)-4,4-dimethylcyclohex-1-en-1-yl]methyl}piperazin-1-yl)-N-({4-[(2,2-difluoroethyl)amino]-3-nitrophenyl}sulfonyl)-2-(1H-indol-5-yloxy)benzamide] | >1309.5 |
| CC1(C)CCC(CN2CCN(c3ccc(C(=O)NS(=O)(=O)c4ccc(NCC5CCOCC5)c(S(=O)(=O)C(F)(F)F)c4)c(Oc4cccc5[nH]ccc45)c3)CC2)=C(c2ccc(Cl)cc2)C1 [EXAMPLE 303, 4-(4-{[2-(4-chlorophenyl)-4,4-dimethylcyclohex-1-en-1-yl]methyl}piperazin-1-yl)-2-(1H-indol-4-yloxy)-N-({4-[(tetrahydro-2H-pyran-4-ylmethyl)amino]-3-[(trifluoromethyl)sulfonyl]phenyl}sulfonyl)benzamide] | >445.9 |
| CC1(C)CCC(CN2CCN(c3ccc(C(=O)NS(=O)(=O)c4ccc(NCC5CCOCC5)c(S(=O)(=O)C(F)(F)F)c4)c(Oc4ccc5[nH]ccc5c4)c3)CC2)=C(c2ccc(Cl)cc2)C1 [EXAMPLE 304, 4-(4-{[2-(4-chlorophenyl)-4,4-dimethylcyclohex-1-en-1-yl]methyl}piperazin-1-yl)-2-(1H-indol-5-yloxy)-N-({4-[(tetrahydro-2H-pyran-4-ylmethyl)amino]-3-[(trifluoromethyl)sulfonyl]phenyl}sulfonyl)benzamide] | >973.5 |
| CC1(C)CCC(CN2CCN(c3ccc(C(=O)NS(=O)(=O)c4ccc(NC5CCC(F)(F)CC5)c([N+](=O)[O-])c4)c(Oc4ccc5[nH]ccc5c4)c3)CC2)=C(c2ccc(Cl)cc2)C1 [EXAMPLE 305, 4-(4-{[2-(4-chlorophenyl)-4,4-dimethylcyclohex-1-en-1-yl]methyl}piperazin-1-yl)-N-({4-[(4,4-difluorocyclohexyl)amino]-3-nitrophenyl}sulfonyl)-2-(1H-indol-5-yloxy)benzamide] | >179.2 |
| CC1(C)CCC(CN2CCN(c3ccc(C(=O)NS(=O)(=O)c4ccc(OCC5(F)CCOCC5)c([N+](=O)[O-])c4)c(Oc4cccc5[nH]ccc45)c3)CC2)=C(c2ccc(Cl)cc2)C1 [EXAMPLE 306, 4-(4-{[2-(4-chlorophenyl)-4,4-dimethylcyclohex-1-en-1-yl]methyl}piperazin-1-yl)-N-({4-[(4-fluorotetrahydro-2H-pyran-4-yl)methoxy]-3-nitrophenyl}sulfonyl)-2-(1H-indol-4-yloxy)benzamide] | 622 |
| CC(C)n1cc(CN2CCN(c3ccc(C(=O)NS(=O)(=O)c4ccc(NCC5CCOCC5)c([N+](=O)[O-])c4)c(Oc4ccc5[nH]ccc5c4)c3)CC2)c(-c2ccc(Cl)cc2)cc1=O [EXAMPLE 307, 4-(4-{[4-(4-chlorophenyl)-1-isopropyl-6-oxo-1,6-dihydropyridin-3-yl]methyl}piperazin-1-yl)-2-(1H-indol-5-yloxy)-N-({3-nitro-4-[(tetrahydro-2H-pyran-4-ylmethyl)amino]phenyl}sulfonyl)benzamide] | >177.1 |
